{"source": "the supplement of paper PMC10307832", "assay_in_all_cases": "relative viability (nuclei count vs DMSO), 5 days (fraction); higher = more cells survive", "key": {"[1]": {"tested_on": "NCI-H2009", "summary_of_the_method": "(§1)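 Values are medians from duplicate plates. Each reflects relative viability, defined as the nuclei count of treated wells over that of vehicle wells. Lung cancer cell lines in 1536-well plates were pin-tool dosed one day after seeding with one drug alone or with a fixed anchor-drug dose plus five library-drug doses (not always all listed) in √10 steps, then fixed, stained and imaged at 4× after 5 days.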"}, "[2]": {"tested_on": "NCI-H1975", "summary_of_the_method": "as §1"}, "[3]": {"tested_on": "LCLC-103H", "summary_of_the_method": "as §1"}, "[4]": {"tested_on": "NCI-H460", "summary_of_the_method": "as §1"}, "[5]": {"tested_on": "CAL-12T", "summary_of_the_method": "as §1"}, "[6]": {"tested_on": "NCI-H1755", "summary_of_the_method": "as §1"}, "[7]": {"tested_on": "EMC-BAC-2", "summary_of_the_method": "as §1"}, "[8]": {"tested_on": "HCC-827", "summary_of_the_method": "as §1"}, "[9]": {"tested_on": "NCI-H1915", "summary_of_the_method": "as §1"}, "[10]": {"tested_on": "COR-L 105", "summary_of_the_method": "as §1"}, "[11]": {"tested_on": "NCI-H1792", "summary_of_the_method": "as §1"}, "[12]": {"tested_on": "SW 1573", "summary_of_the_method": "as §1"}, "[13]": {"tested_on": "NCI-H2228", "summary_of_the_method": "as §1"}, "[14]": {"tested_on": "NCI-H1355", "summary_of_the_method": "as §1"}, "[15]": {"tested_on": "NCI-H727", "summary_of_the_method": "as §1"}, "[16]": {"tested_on": "NCI-H1395", "summary_of_the_method": "as §1"}, "[17]": {"tested_on": "SK-LU-1", "summary_of_the_method": "as §1"}, "[18]": {"tested_on": "HARA", "summary_of_the_method": "as §1"}, "[19]": {"tested_on": "NCI-H23", "summary_of_the_method": "as §1"}, "[20]": {"tested_on": "HOP-62", "summary_of_the_method": "as §1"}, "[21]": {"tested_on": "NCI-H1437", "summary_of_the_method": "as §1"}, "[22]": {"tested_on": "A-427", "summary_of_the_method": "as §1"}}}
{"smiles": "Oc1nc(-c2ccc(C(F)(F)F)cc2)nc2c1CSCC2", "note": "[XAV939] + CCNC(=O)c1noc(-c2cc(C(C)C)c(O)cc2O)c1-c1ccc(CN2CCOCC2)cc1 [Luminespib] (partner 0.01 µM)", "values": [{"measurement": "relative viability", "setting": "[1]; first compound 0.08 µM", "value": 1.09}, {"measurement": "relative viability", "setting": "[1]; first compound 0.253 µM", "value": 0.883}, {"measurement": "relative viability", "setting": "[1]; first compound 0.8 µM", "value": 1}, {"measurement": "relative viability", "setting": "[1]; first compound 2.53 µM", "value": 0.94}, {"measurement": "relative viability", "setting": "[2]; first compound 0.08 µM", "value": 0.217}, {"measurement": "relative viability", "setting": "[2]; first compound 0.253 µM", "value": 0.246}, {"measurement": "relative viability", "setting": "[2]; first compound 0.8 µM", "value": 0.204}, {"measurement": "relative viability", "setting": "[2]; first compound 2.53 µM", "value": 0.139}, {"measurement": "relative viability", "setting": "[3]; first compound 0.08 µM", "value": 1.09}, {"measurement": "relative viability", "setting": "[3]; first compound 0.253 µM", "value": 0.934}, {"measurement": "relative viability", "setting": "[3]; first compound 0.8 µM", "value": 0.971}, {"measurement": "relative viability", "setting": "[3]; first compound 2.53 µM", "value": 0.799}, {"measurement": "relative viability", "setting": "[4]; first compound 0.08 µM", "value": 0.0319}, {"measurement": "relative viability", "setting": "[4]; first compound 0.253 µM", "value": 0.0395}, {"measurement": "relative viability", "setting": "[4]; first compound 0.8 µM", "value": 0.0405}, {"measurement": "relative viability", "setting": "[4]; first compound 2.53 µM", "value": 0.0235}, {"measurement": "relative viability", "setting": "[5]; first compound 0.08 µM", "value": 0.54}, {"measurement": "relative viability", "setting": "[5]; first compound 0.253 µM", "value": 0.363}, {"measurement": "relative viability", "setting": "[5]; first compound 0.8 µM", "value": 0.363}, {"measurement": "relative viability", "setting": "[5]; first compound 2.53 µM", "value": 0.3}, {"measurement": "relative viability", "setting": "[6]; first compound 0.08 µM", "value": 0.522}, {"measurement": "relative viability", "setting": "[6]; first compound 0.253 µM", "value": 0.457}, {"measurement": "relative viability", "setting": "[6]; first compound 0.8 µM", "value": 0.361}, {"measurement": "relative viability", "setting": "[6]; first compound 2.53 µM", "value": 0.488}, {"measurement": "relative viability", "setting": "[7]; first compound 0.08 µM", "value": 1.37}, {"measurement": "relative viability", "setting": "[7]; first compound 0.253 µM", "value": 1.09}, {"measurement": "relative viability", "setting": "[7]; first compound 0.8 µM", "value": 0.971}, {"measurement": "relative viability", "setting": "[7]; first compound 2.53 µM", "value": 0.771}, {"measurement": "relative viability", "setting": "[8]; first compound 0.08 µM", "value": 0.743}, {"measurement": "relative viability", "setting": "[8]; first compound 0.253 µM", "value": 0.739}, {"measurement": "relative viability", "setting": "[8]; first compound 0.8 µM", "value": 0.587}, {"measurement": "relative viability", "setting": "[8]; first compound 2.53 µM", "value": 0.396}, {"measurement": "relative viability", "setting": "[9]; first compound 0.08 µM", "value": 1.11}, {"measurement": "relative viability", "setting": "[9]; first compound 0.253 µM", "value": 0.449}, {"measurement": "relative viability", "setting": "[9]; first compound 0.8 µM", "value": 0.849}, {"measurement": "relative viability", "setting": "[9]; first compound 2.53 µM", "value": 0.741}, {"measurement": "relative viability", "setting": "[10]; first compound 0.08 µM", "value": 0.964}, {"measurement": "relative viability", "setting": "[10]; first compound 0.253 µM", "value": 0.742}, {"measurement": "relative viability", "setting": "[10]; first compound 0.8 µM", "value": 0.458}, {"measurement": "relative viability", "setting": "[10]; first compound 2.53 µM", "value": 0.763}, {"measurement": "relative viability", "setting": "[11]; first compound 0.08 µM", "value": 0.419}, {"measurement": "relative viability", "setting": "[11]; first compound 0.253 µM", "value": 0.391}, {"measurement": "relative viability", "setting": "[11]; first compound 0.8 µM", "value": 0.466}, {"measurement": "relative viability", "setting": "[11]; first compound 2.53 µM", "value": 0.464}, {"measurement": "relative viability", "setting": "[12]; first compound 0.08 µM", "value": 0.691}, {"measurement": "relative viability", "setting": "[12]; first compound 0.253 µM", "value": 0.249}, {"measurement": "relative viability", "setting": "[12]; first compound 0.8 µM", "value": 0.136}, {"measurement": "relative viability", "setting": "[12]; first compound 2.53 µM", "value": 0.226}, {"measurement": "relative viability", "setting": "[13]; first compound 0.08 µM", "value": 0.156}, {"measurement": "relative viability", "setting": "[13]; first compound 0.253 µM", "value": 0.158}, {"measurement": "relative viability", "setting": "[13]; first compound 0.8 µM", "value": 0.152}, {"measurement": "relative viability", "setting": "[13]; first compound 2.53 µM", "value": 0.134}, {"measurement": "relative viability", "setting": "[14]; first compound 0.08 µM", "value": 0.814}, {"measurement": "relative viability", "setting": "[14]; first compound 0.253 µM", "value": 0.787}, {"measurement": "relative viability", "setting": "[14]; first compound 0.8 µM", "value": 0.632}, {"measurement": "relative viability", "setting": "[14]; first compound 2.53 µM", "value": 0.47}, {"measurement": "relative viability", "setting": "[15]; first compound 0.08 µM", "value": 0.31}, {"measurement": "relative viability", "setting": "[15]; first compound 0.253 µM", "value": 0.345}, {"measurement": "relative viability", "setting": "[15]; first compound 0.8 µM", "value": 0.472}, {"measurement": "relative viability", "setting": "[15]; first compound 2.53 µM", "value": 0.342}, {"measurement": "relative viability", "setting": "[16]; first compound 0.08 µM", "value": 0.614}, {"measurement": "relative viability", "setting": "[16]; first compound 0.253 µM", "value": 0.725}, {"measurement": "relative viability", "setting": "[16]; first compound 0.8 µM", "value": 0.721}, {"measurement": "relative viability", "setting": "[16]; first compound 2.53 µM", "value": 0.662}, {"measurement": "relative viability", "setting": "[17]; first compound 0.08 µM", "value": 0.201}, {"measurement": "relative viability", "setting": "[17]; first compound 0.253 µM", "value": 0.193}, {"measurement": "relative viability", "setting": "[17]; first compound 0.8 µM", "value": 0.207}, {"measurement": "relative viability", "setting": "[17]; first compound 2.53 µM", "value": 0.246}, {"measurement": "relative viability", "setting": "[18]; first compound 0.08 µM", "value": 1.29}, {"measurement": "relative viability", "setting": "[18]; first compound 0.253 µM", "value": 0.877}, {"measurement": "relative viability", "setting": "[18]; first compound 0.8 µM", "value": 0.865}, {"measurement": "relative viability", "setting": "[18]; first compound 2.53 µM", "value": 0.675}, {"measurement": "relative viability", "setting": "[19]; first compound 0.08 µM", "value": 0.251}, {"measurement": "relative viability", "setting": "[19]; first compound 0.253 µM", "value": 0.214}, {"measurement": "relative viability", "setting": "[19]; first compound 0.8 µM", "value": 0.224}, {"measurement": "relative viability", "setting": "[19]; first compound 2.53 µM", "value": 0.221}, {"measurement": "relative viability", "setting": "[20]; first compound 0.08 µM", "value": 1.01}, {"measurement": "relative viability", "setting": "[20]; first compound 0.253 µM", "value": 0.869}, {"measurement": "relative viability", "setting": "[20]; first compound 0.8 µM", "value": 1}, {"measurement": "relative viability", "setting": "[20]; first compound 2.53 µM", "value": 0.74}, {"measurement": "relative viability", "setting": "[21]; first compound 0.08 µM", "value": 1.2}, {"measurement": "relative viability", "setting": "[21]; first compound 0.253 µM", "value": 1.09}, {"measurement": "relative viability", "setting": "[21]; first compound 0.8 µM", "value": 1.14}, {"measurement": "relative viability", "setting": "[21]; first compound 2.53 µM", "value": 0.911}, {"measurement": "relative viability", "setting": "[22]; first compound 0.08 µM", "value": 1.15}, {"measurement": "relative viability", "setting": "[22]; first compound 0.253 µM", "value": 0.978}, {"measurement": "relative viability", "setting": "[22]; first compound 0.8 µM", "value": 0.753}, {"measurement": "relative viability", "setting": "[22]; first compound 2.53 µM", "value": 0.782}]}
